Results from patent US20080318933A1, “5-Sulfonyl-1-Piperidinyl Substituted Indole Derivatives as 5-Ht6 Receptor Antagonists for the Treatment of Cns Disorders” (Glaxo Group Limited, priority 2004, published 2008).
Counter-ions that a name gives are not always drawn.

Each compound was assayed against T1, human cloned 5-HT6 receptors (Homo sapiens, UniProt P50406) (assay: Cyclase assay (cAMP production in membranes of HeLa 5HT6 cells, 5-HT stimulated)). Conditions: 5-HT at 4xEC50, functional Ki by Cheng-Prusoff, read-out: pKi values (converted).
T1 construct: expressed in transfected cells; host or cells: HeLa cells expressing cloned human 5-HT6 receptor (membranes)
Type: biochemical
Experimental: 0.5 μl of test compound in 100% dimethylsulfoxide (DMSO) was added to a white, solid 384 well assay plate (for dose response measurements the top of the concentration range is 7.5 μM final). 10 μl of washed membranes of HeLa 5HT6 cells (for preparation see WO 98/27081) in basic buffer (50 mM HEPES pH 7.4 (KOH), 10 mM MgCl2, 100 mM NaCl, 10 μM 3-isobutyl-1-methylxanthine (IBMX) (Sigma-Aldrich)) was added to all wells followed by 10 μl 2×ATP buffer (i.e. basic buffer containing 3 mM ATP) with 5-HT (at a concentration equivalent to a dose response of 4×EC50). The resultant mixture was then incubated at room temperature for 30-45 minutes to allow cAMP production. cAMP production was then measured using the DiscoveRX™ HitHunter™ chemiluminescence cAMP assay kit (DiscoveRx Corporation, 42501 Albrae Street, Fremont, Calif. 94538; Product Code: 90-0004L) or any other suitable cAMP measurement assay.
IC50 values were estimated from arbitrary designated unit (ADU) measurements from a Perkin Elmer Viewlux instrument using a four parameter logistic curve fit within EXCEL (Bowen, W. P. and Jerman, J. C. (1995), Nonlinear regression using spreadsheets. Trends in Pharmacol. Sci., 16, 413-417). Functional Ki values were calculated using the method of Cheng, Y. C. and Prussof, W. H. (Biochemical Pharmacol (1973) 22 3099-3108). plC50 and fpKi are the negative log 10 of the molar IC50 and functional Ki respectively.

T1 sequence (P50406 whole entry): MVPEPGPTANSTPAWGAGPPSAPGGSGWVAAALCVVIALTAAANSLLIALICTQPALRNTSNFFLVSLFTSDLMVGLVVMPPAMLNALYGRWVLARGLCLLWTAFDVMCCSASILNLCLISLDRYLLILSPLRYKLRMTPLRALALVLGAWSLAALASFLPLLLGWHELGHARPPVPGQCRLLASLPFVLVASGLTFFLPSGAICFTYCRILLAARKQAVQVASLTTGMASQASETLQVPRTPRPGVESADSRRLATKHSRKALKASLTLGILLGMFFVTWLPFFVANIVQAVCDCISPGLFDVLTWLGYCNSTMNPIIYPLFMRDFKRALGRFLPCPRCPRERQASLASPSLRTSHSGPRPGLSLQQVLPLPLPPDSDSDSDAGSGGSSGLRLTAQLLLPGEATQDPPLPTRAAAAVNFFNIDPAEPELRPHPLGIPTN

Row | Compound | Ki [nM]
1 | CCCN1CCC(N2CCc3cc(S(=O)(=O)c4cc(F)cc(F)c4)ccc32)CC1 [Example E34, 5-[(3,5-Difluorophenyl)sulfonyl]-1-(1-propyl-4-piperidinyl)-2,3-dihydro-1H-indole hydrochloride] | ≤ 10
2 | CN1CCC(N2CCc3cc(S(=O)(=O)c4cccc(Cl)c4)ccc32)CC1 [Example E53, 5-[(3-Chlorophenyl)sulfonyl]-1-(1-methyl-4-piperidinyl)-2,3-dihydro-1H-indole hydrochloride] | ≤ 10
3 | O=S(=O)(c1ccc2c(c1)CCN2C1CCNCC1)c1cc(F)ccc1F [Example E27, 5-[(2,5-Difluorophenyl)sulfonyl]-1-(4-piperidinyl)-2,3-dihydro-1H-indole hydrochloride] | ≤ 10
4 | Cc1cccc(S(=O)(=O)c2ccc3c(c2)CCN3C2CCNCC2)c1 [Example E26, 5-[(3-Methylphenyl)sulfonyl]-1-(4-piperidinyl)-2,3-dihydro-1H-indole hydrochloride] | ≤ 10
5 | CN1CCC(n2ccc3cc(S(=O)(=O)c4ccccc4)ccc32)CC1 [Example E2, 1-(1-Methyl-4-piperidinyl)-5-(phenylsulfonyl)-1H-indole hydrochloride] | ≤ 10
6 | CN1CCC(N2CCc3cc(S(=O)(=O)c4ccccc4)cc(Cl)c32)CC1 [Example E32, 7-Chloro-1-(1-methyl-4-piperidinyl)-5-(phenylsulfonyl)-2,3-dihydro-1H-indole hydrochloride] | ≤ 10
7 | CN1CCC(N2CC(C)(C)c3cc(S(=O)(=O)c4ccccc4)ccc32)CC1 [Example E5, 3,3-Dimethyl-1-(1-methyl-4-piperidinyl)-5-(phenylsulfonyl)-2,3-dihydro-1H-indole hydrochloride] | < 316
8 | CCN1CCC(N2CCc3cc(S(=O)(=O)c4cccc(C)c4)ccc32)CC1 [Example E63, 5-[(3-Methylphenyl)sulfonyl]-1-(1-ethyl-4-piperidinyl)-2,3-dihydro-1H-indole hydrochloride] | ≤ 10
9 | N#Cc1ccccc1S(=O)(=O)c1ccc2c(c1)CCN2C1CCNCC1 [Example E20, 2-{[1-(4-Piperidinyl)-2,3-dihydro-1H-indol-5-yl]sulfonyl}-benzonitrile hydrochloride] | ≤ 10
10 | O=S(=O)(c1cc(F)cc(F)c1)c1ccc2c(c1)CCN2C1CCNCC1 [Example E10, 5-[(3,5-Difluorophenyl)sulfonyl]-1-(4-piperidinyl)-2,3-dihydro-1H-indole hydrochloride] | ≤ 10
11 | CCN1CCC(N2CCc3cc(S(=O)(=O)c4ccc(F)c(F)c4)ccc32)CC1 [Example E60, 5-[(3,4-Difluorophenyl)sulfonyl]-1-(1-ethyl-4-piperidinyl)-2,3-dihydro-1H-indole hydrochloride] | ≤ 10
12 | O=S(=O)(c1ccc(F)cc1)c1ccc2c(c1)CCN2C1CCNCC1 [Example E15a, 5-[(4-Fluorophenyl)sulfonyl]-1-(4-piperidinyl)-2,3-dihydro-1H-indole hydrochloride] | ≤ 10
13 | Cc1nc(C)c(S(=O)(=O)c2ccc3c(c2)CCN3C2CCNCC2)s1 [Example E28, 5-[(2,4-Dimethyl-1,3-thiazol-5-yl)sulfonyl]-1-(4-piperidinyl)-2,3-dihydro-1H-indole hydrochloride] | ≤ 10
14 | O=S(=O)(c1ccccc1)c1ccc2c(ccn2C2CCNCC2)c1 [Example E1, 5-(Phenylsulfonyl)-1-(4-piperidinyl)-1H-indole hydrochloride] | ≤ 10
15 | CCCN1CCC(N2CCc3cc(S(=O)(=O)c4cc(F)ccc4F)ccc32)CC1 [Example E44, 5-[(2,5-Difluorophenyl)sulfonyl]-1-(1-propyl-4-piperidinyl)-2,3-dihydro-1H-indole hydrochloride] | ≤ 10

Second part, the compound after the results:

Row | Ki [nM] | Compound
16 | ≤ 10 | O=S(=O)(c1ccccc1)c1ccc2c(c1)CCN2C1CCCNCC1 (centres unmarked) [Example E16a, 1-(Hexahydro-1H-azepin-4-yl)-5-(phenylsulfonyl)-2,3-dihydro-1H-indole]
17 | ≤ 10 | CN1CCC(N2CCc3cc(S(=O)(=O)c4ccccc4)ccc32)CC1 [Example E4, 1-(1-Methyl-4-piperidinyl)-5-(phenylsulfonyl)-2,3-dihydro-1H-indole hydrochloride]
18 | ≤ 10 | CN1CCC(N2CCc3cc(S(=O)(=O)c4ccccc4F)ccc32)CC1 [Example E48, 5-[(2-Fluorophenyl)sulfonyl]-1-(1-methyl-4-piperidinyl)-2,3-dihydro-1H-indole hydrochloride]
19 | ≤ 10 | O=S(=O)(c1ccccc1)c1ccc2c(c1)CCN2C1CCNCC1 [Example E3a, 5-(Phenylsulfonyl)-1-(4-piperidinyl)-2,3-dihydro-1H-indole hydrochloride]
20 | ≤ 10 | CC(C)N1CCC(N2CCc3cc(S(=O)(=O)c4cccc(F)c4)ccc32)CC1 [Example E57, 5-[(3-Fluorophenyl)sulfonyl]-1-(1-(1-methylethyl)-4-piperidinyl)-2,3-dihydro-1H-indole hydrochloride]
21 | ≤ 10 | CC(C)CN1CCC(N2CCc3cc(S(=O)(=O)c4ccccc4)ccc32)CC1 [Example E37, 1-[1-(2-Methylpropyl)-4-piperidinyl]-5-(phenylsulfonyl)-2,3-dihydro-1H-indole hydrochloride]
22 | ≤ 10 | CC(C)N1CCC(N2CCc3cc(S(=O)(=O)c4cc(F)cc(F)c4)ccc32)CC1 [Example E52, 5-[(3,5-Difluorophenyl)sulfonyl]-1-[1-(1-methylethyl)-4-piperidinyl)-2,3-dihydro-1H-indole hydrochloride]
23 | ≤ 10 | CN1CCC(N2CCc3cc(S(=O)(=O)c4cccc(F)c4)ccc32)CC1 [Example E47, 5-[(3-Fluorophenyl)sulfonyl]-1-(1-methyl-4-piperidinyl)-2,3-dihydro-1H-indole hydrochloride]
24 | ≤ 10 | CN1CCC(N2CCc3cc(S(=O)(=O)c4ccccc4Cl)ccc32)CC1 [Example E49, 5-[(2-Chlorophenyl)sulfonyl]-1-(1-methyl-4-piperidinyl)-2,3-dihydro-1H-indole hydrochloride]
25 | ≤ 10 | CC(C)N1CCC(N2CCc3cc(S(=O)(=O)c4ccccc4)ccc32)CC1 [Example E36, 1-[1-(1-Methylethyl)-4-piperidinyl]-5-(phenylsulfonyl)-2,3-dihydro-1H-indole]
26 | ≤ 10 | O=S(=O)(c1ccccc1)c1ccc2c(c1)CCN2C1CCNC1 (centres unmarked) [Example E17a, 5-(Phenylsulfonyl)-1-(3-pyrrolidinyl)-2,3-dihydro-1H-indole]
